In patent US20240140999A1, “STABILIZED PEPTIDE-MEDIATED TARGETED PROTEIN DEGRADATION” (Dana-Farber Cancer Institute, Inc., priority 2017, published 2024):
“Also recorded” adds a separate entry of the source. Each block holds one substance with its values, some of them ahead of it.

Experiments:
[1] = biological target: T1, Cop1 (Homo sapiens, UniProt Q8NHY2); experiment: Cop1-mediated degradation of Myc-tagged MDM2 p60 chimera constructs expressed in 293T cells; assay type: cell-based; design: Cop1-expressing human embryonic kidney 293T cells; endogenous in cells; host or cells: 293T (human embryonic kidney); settings: native GFDVPD replaced by the sequence; Cop1-expressing 293T cells
Description: The native peptide sequence GFDVPD (SEQ ID NO: 26) within MDM2 is replaced by the sequences indicated (lane 3: SEQ ID NO:27; lane 4: SEQ ID NO:28; lane 5: SEQ ID NO:29; and lane 6: SEQ ID NO:30). […] Lower panel: Cop1 loading control.
(§1) (1) Direct genetic modification: Replacement of natural protein residues in structurally disordered regions with derivatives of the sequence DQIVPEY (SEQ ID NO: 25) can cause the chimera proteins to be degraded by Cop1. For example, replacement of the C-terminal sequence GFDVPD (SEQ ID NO: 26) of the p60 isoform of the protein HDM2 with the Trib1-derived sequence DQIVPD (SEQ ID NO: 30) causes Cop1-mediated degradation of the mutant protein when exogenously expressed in Cop1-expressing human embryonic kidney 293T cells (FIG. 13).

[2] = biological target: T1, Cop1; experiment: Co-immunoprecipitation of Myc-tagged MDM2 p60 mutant constructs with Cop1 from 293T cells; assay type: cell-based; design: Cop1-expressing human embryonic kidney 293T cells; endogenous in cells; host or cells: 293T (human embryonic kidney)
Description: Sequences: GFDVPD (SEQ ID NO:26); GFDAAD (SEQ ID NO:27); GNDVPD (SEQ ID NO:28); PQTVPD (SEQ ID NO:29); and DQIVPD (SEQ ID NO:30).
as §1

[3] = biological target: T1, Cop1; settings: reported value (Uljon et al.); read-out: binding affinity for Cop1; cited from earlier work
[4] = biological target: T2, MCL-1 (Homo sapiens, UniProt Q07820); experiment: MCL-1 levels by western blot in A375P melanoma cells; assay type: cell-based; settings: 10 μM, western blot over time
T2 construct: monitoring of cellular MCL-1 levels by western blot of lysates; endogenous in cells; host or cells: A375P melanoma cells
Description: BIM-C-terminal degron is #IWIAQELRXIGDXFNAYYARR% (SEQ ID NO: 134; #=N-term Ac; %=Lys-degron (see FIG. 3 for the structure of Lys-degron)).
A stapled peptide helix-degron chimeric peptide (FIG. 1) modeled after the pro-apoptotic BIM BH3 domain with an incorporated degron (e.g., Lys-degron, FIG. 2-4) was applied to A375P melanoma cells that express such anti-apoptotic BCL-2 family proteins as MCL-1, which promotes cancer cell survival and chemoresistance.

[5] = test system: SJSA-1 cells; experiment: Cell viability of SJSA-1 cells (Cell Titer Glo); assay type: cell-based; settings: thalidomide degron chimeras with distinct linkers, FIG. 12
Experimental: Certain compositions bearing different linkers show no cellular activity (right). Linker1-5 are as depicted in FIG. 5.
A stapled peptide degron chimera modeled after the transactivation domain helix of p53 (ATSP-7041) coupled to a thalidomide degron was applied to cultured cancer cells (SJSA-1, SJSA-X) and MDM2 protein levels were monitored by western blot and compared to that in cells treated with ATSP-7041 alone. The experiment was repeated and cell viability was measured by Cell Titer Glo assay. […] In addition, each of the stapled peptide degron chimeras impaired cancer cell viability in a dose-responsive fashion (FIG. 12). The composition of the linker influenced the presence (FIG. 12, left) or absence (FIG. 12, right) of biological activity.

T1 sequence (Q8NHY2 whole entry): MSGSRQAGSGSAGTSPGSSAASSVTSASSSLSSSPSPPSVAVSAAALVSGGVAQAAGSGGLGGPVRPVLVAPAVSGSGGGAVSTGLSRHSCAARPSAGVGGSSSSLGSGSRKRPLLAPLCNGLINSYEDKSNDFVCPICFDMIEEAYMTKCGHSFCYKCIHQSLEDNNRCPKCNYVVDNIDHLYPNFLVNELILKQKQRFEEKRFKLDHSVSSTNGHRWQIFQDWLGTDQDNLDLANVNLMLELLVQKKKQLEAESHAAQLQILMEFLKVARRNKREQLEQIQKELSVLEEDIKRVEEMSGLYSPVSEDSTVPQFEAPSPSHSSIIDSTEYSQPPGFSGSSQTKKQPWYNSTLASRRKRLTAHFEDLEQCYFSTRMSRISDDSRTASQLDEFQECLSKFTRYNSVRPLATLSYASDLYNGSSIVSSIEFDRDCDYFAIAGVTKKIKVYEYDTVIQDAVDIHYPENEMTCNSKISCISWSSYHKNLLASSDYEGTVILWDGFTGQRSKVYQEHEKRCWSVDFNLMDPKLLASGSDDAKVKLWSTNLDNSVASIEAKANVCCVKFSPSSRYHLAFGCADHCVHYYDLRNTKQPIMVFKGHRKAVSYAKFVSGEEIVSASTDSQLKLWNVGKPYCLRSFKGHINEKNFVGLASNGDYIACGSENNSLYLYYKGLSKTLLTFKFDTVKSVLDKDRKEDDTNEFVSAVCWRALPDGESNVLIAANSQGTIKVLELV

binding of the Myc-tagged MDM2 p60 mutant construct to Cop1 [2]: direct binding
Substance: DQIVPD
Cop1-mediated degradation of the MDM2 p60 chimera protein [1]: causes destruction of the p60 chimera protein by the Cop1 protein

Substance: DQIVPEY
Kd [3]: 0.25 ± 0.04 µM

Substance: #IWIAQELRXIGDXFNAYYARR% [BIM-C-terminal degron, stapled BIM BH3 peptide; #=N-term Ac; %=Lys-degron (thalidomide on C-terminal lysine side chain)]
cellular MCL-1 protein level [4]: time-dependent decrease in MCL-1 protein; also recorded: induces the degradation of MCL-1

Substance: LTF8EYWAQLX%AA [5-L5]
cell viability / cytotoxic activity [5]: most potent cytotoxic activity
